Laboratory results taken from ChEMBL document CHEMBL6109147, “Discovery of Potent STING Inhibitors Bearing a Difluorobenzodioxol Structural Motif as Potent Anti-Inflammatory Agents” (J Med Chem, 2025).
Calls of active or inactive are those of the source. No cut-off for these calls is given here.

Key:
[1] = Metabolic stability in human liver microsomes assessed as half life; assay type: ADME, Microsome
Mus musculus [2] = test: Anti-inflammatory activity against Cisplatin induced C57BL/6 mouse kidney inflammation model assessed as prevention of Cisplatin induced glomerular injury at 5 mg/kg, ip treated for 3 days; assay type: functional, organism-based; conditions: time 3.0 day
Mus musculus [3] = test: Anti-inflammatory activity against MSA-2 induced C57BL/6 mouse inflammation model assessed as inhibition of MSA-2 induced IP-10 level in kidney at 10 mg/kg, ip pre-treated for 1 hr followed by stimulated with MSA-2 for 4 hrs by ELISA; assay type: functional, organism-based; conditions: time 5.0 hrs
[4] = MRT (0 to infinity) in Sprague-Dawley rat at 1 mg/kg, iv; assay type: ADME, organism-based; conditions: Sprague-Dawley, in vivo
[5] = target: Stimulator of interferon genes protein (Homo sapiens) (UniProt Q86WV6); test: Inhibition of STING downstream signalling in human THP1-Dual cells assessed as inhibition of MSA-2 induced IP-10 mRNA expression at 0.3 to 3 uM pre-treated for 1 hr followed by stimulated with MSA-2 measured after 4 hrs by real-time PCR analysis; assay type: cell-based; conditions: dose 0.3-3 µM, time 5.0 hrs
Chain of Stimulator of interferon genes protein (Homo sapiens) (Q86WV6 whole entry): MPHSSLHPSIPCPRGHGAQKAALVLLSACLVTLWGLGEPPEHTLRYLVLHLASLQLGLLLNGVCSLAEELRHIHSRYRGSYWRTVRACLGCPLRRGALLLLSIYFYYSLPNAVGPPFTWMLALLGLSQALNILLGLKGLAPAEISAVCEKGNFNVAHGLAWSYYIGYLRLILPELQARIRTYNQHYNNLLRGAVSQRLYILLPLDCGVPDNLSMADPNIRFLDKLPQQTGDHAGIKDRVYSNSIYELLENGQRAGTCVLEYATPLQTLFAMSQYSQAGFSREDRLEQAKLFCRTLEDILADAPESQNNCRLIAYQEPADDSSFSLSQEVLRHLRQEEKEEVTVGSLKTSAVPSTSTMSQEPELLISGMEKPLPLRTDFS

Mus musculus [6] = test: Anti-inflammatory activity against MSA-2 induced C57BL/6 mouse inflammation model assessed as inhibition of MSA-2 induced IP-10 level in plasma at 10 mg/kg, ip pre-treated for 1 hr followed by stimulated with MSA-2 for 4 hrs by ELISA; assay type: functional, organism-based; conditions: time 5.0 hrs
[7] = Metabolic stability in human liver microsomes assessed as microsomal intrinsic clearance; assay type: ADME, Microsome; conditions: read-out: CLH
[8] = Cytotoxicity against mouse RAW-Lucia ISG cells assessed as cell viability measured after 24 hrs by CCK8 assay; assay type: toxicity, cell-based
[9] = Metabolic stability in mouse liver microsomes assessed as liver intrinsic clearance; assay type: ADME, Microsome
[10] = target: Stimulator of interferon genes protein (Homo sapiens) (UniProt Q86WV6); test: Inhibition of STING downstream signalling in human THP1-Dual cells assessed as inhibition of cGAMP induced IFN-beta secretion at 0.3 to 3 uM pre-treated for 1 hr followed by stimulated with cGAMP measured after 24 hrs by ELISA; assay type: cell-based; conditions: dose 0.3-3 µM, time 25.0 hrs
[11] = target: Stimulator of interferon genes protein (Homo sapiens) (UniProt Q86WV6); test: Binding affinity to Flag-tagged human STING expressed in HEK293T cells assessed as labelling at 0.5 to 4 uM pretreated for 15 mins measured after 1 hr in presence of 1 uM 1-(2,2-difluorobenzo[d][1,3]dioxol-5-yl)-3-(5-ethynyl-1H-indol-3-yl)urea by TAMRA-N3 fluorescent assay; assay type: cell-based; conditions: dose 0.5-4 µM, time 75.0 min
[12] = target: T1, Stimulator of interferon genes protein (Mus musculus) (UniProt Q3TBT3); test: Inhibition of STING downstream signalling in mouse BMDM cells assessed as inhibition of MSA-2 induced Isg15 mRNA level pre-treated for 1 hr followed by stimulated with MSA-2 measured after 4 hrs by real-time PCR analysis; assay type: cell-based; conditions: dose 0.3-3 µM, time 5.0 hrs
T1 sequence (whole entry): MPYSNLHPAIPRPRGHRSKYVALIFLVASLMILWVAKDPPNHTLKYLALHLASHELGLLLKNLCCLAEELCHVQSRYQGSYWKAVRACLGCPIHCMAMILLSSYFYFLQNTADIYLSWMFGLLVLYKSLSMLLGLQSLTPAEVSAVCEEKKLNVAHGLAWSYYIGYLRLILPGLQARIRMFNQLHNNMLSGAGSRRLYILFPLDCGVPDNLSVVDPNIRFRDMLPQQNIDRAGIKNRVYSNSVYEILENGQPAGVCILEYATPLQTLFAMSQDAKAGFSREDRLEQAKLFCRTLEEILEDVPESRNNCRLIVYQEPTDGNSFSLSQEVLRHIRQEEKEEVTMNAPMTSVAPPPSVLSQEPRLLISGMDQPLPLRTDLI

Mus musculus [13] = test: Anti-inflammatory activity in TREX1 D18N mouse model assessed as reduction in Cxcl10 mRNA expression in kidney at 10 mg/kg, ip measured after 2 weeks; assay type: functional, organism-based
[14] = target: Stimulator of interferon genes protein (Homo sapiens) (UniProt Q86WV6); test: Inhibition of STING downstream signalling in human THP1-Dual cells assessed as inhibition of HT-DNA induced IP-10 mRNA expression at 0.3 to 3 uM pre-treated for 1 hr followed by stimulated with HT-DNA measured after 4 hrs by real-time PCR analysis; assay type: cell-based; conditions: dose 0.3-3 µM, time 5.0 hrs
THP1-Dual = test: Cytotoxicity against human THP1-Dual cells assessed as cell viability measured after 24 hrs by CCK8 assay; assay type: functional, cell-based
[15] = target: Stimulator of interferon genes protein (Homo sapiens) (UniProt Q86WV6); test: Inhibition of STING downstream signalling in human THP1-Dual cells assessed as inhibition of cGAMP induced IFN-beta mRNA expression at 0.3 to 3 uM pre-treated for 1 hr followed by stimulated with cGAMP measured after 4 hrs by real-time PCR analysis; assay type: cell-based; conditions: dose 0.3-3 µM, time 5.0 hrs
Mus musculus [16] = test: Toxicity in TREX1 D18N mouse model assessed as change in body weight at 10 mg/kg, ip measured after 2 weeks; assay type: organism-based; conditions: in vivo, 336 h
HEK293 = test: Protection of Cisplatin induced apoptosis in human HEK293 cells assessed as apoptotic cells at 10 uM measured after 72 hrs by flow cytometry; assay type: functional, cell-based
[17] = Clearance in Sprague-Dawley rat at 1 mg/kg, iv; assay type: ADME, organism-based; conditions: in vivo
[18] = Metabolic stability in mouse liver microsomes assessed as microsomal intrinsic clearance; assay type: ADME, Microsome; conditions: read-out: CLH
[19] = target: Stimulator of interferon genes protein (Homo sapiens) (UniProt Q86WV6); test: Inhibition of STING downstream signalling in human THP1-Dual cells assessed as inhibition of HT-DNA induced ISG15 mRNA expression at 0.3 to 3 uM pre-treated for 1 hr followed by stimulated with HT-DNA measured after 4 hrs by real-time PCR analysis; assay type: cell-based; conditions: dose 0.3-3 µM, time 5.0 hrs
Mus musculus [20] = test: Anti-inflammatory activity against MSA-2 induced C57BL/6 mouse inflammation model assessed as inhibition of MSA-2 induced Isg56 RNA expression in kidney at 10 mg/kg, ip pre-treated for 1 hr followed by stimulated with MSA-2 for 4 hrs by real-time PCR analysis; assay type: functional, organism-based; conditions: time 5.0 hrs
Mus musculus [21] = test: Effect on […] expression in Cisplatin induced C57BL/6 STING-KO mouse kidney inflammation model at 5 mg/kg, ip treated for 3 days by real-time PCR analysis; assay type: functional, organism-based; conditions: time 3.0 day
Mus musculus [22] = test: Anti-inflammatory activity against MSA-2 induced C57BL/6 mouse inflammation model assessed as inhibition of MSA-2 induced Isg15 mRNA expression in kidney at 10 mg/kg, ip pre-treated for 1 hr followed by stimulated with MSA-2 for 4 hrs by real-time PCR analysis; assay type: functional, organism-based; conditions: time 5.0 hrs
[23] = target: Stimulator of interferon genes protein (Homo sapiens) (UniProt Q86WV6); test: Inhibition of human wild type STING (R232) expressed in human 293-Dual hSTING-R232 cells assessed as reduction in cGAMP-induced IL-6 expression; assay type: cell-based
[24] = target: Stimulator of interferon genes protein (Homo sapiens) (UniProt Q86WV6); test: Inhibition of human wild type STING (R232) expressed in human 293-Dual hSTING-R232 cells assessed as reduction in cGAMP-induced TNF-alpha expression; assay type: cell-based
[25] = target: Stimulator of interferon genes protein (Homo sapiens) (UniProt Q86WV6); test: Inhibition of STING downstream signalling in human THP1-Dual cells assessed as inhibition of MSA-2 induced IFN-beta secretion at 0.3 to 3 uM pre-treated for 1 hr followed by stimulated with MSA-2 measured after 24 hrs by ELISA; assay type: cell-based; conditions: dose 0.3-3 µM, time 25.0 hrs
[26] = Metabolic stability in human liver microsomes assessed as liver intrinsic clearance; assay type: ADME, Microsome

With `N#CC/C=C/c1ccc2[nH]cc(NC(=O)Nc3ccc4c(c3)OC(F)(F)O4)c2c1` the half-life [1] was 33.8 min, the inhibition (Mus musculus [2]) was “inactive” and the inhibition (Mus musculus [3]) was “Active”. The MRT inf [4] was 22.8 min, the inhibition [5] was “Active” and the inhibition (Mus musculus [6]) was “Active”. For the same compound, the microsomal CLint [7] was 41 µL/min/mg, the Activity [8] was “Non-toxic” and the CLH [9] was 206 µL/min/mg. The inhibition [10] was “Active”, the Activity [11] was “inactive” and the inhibition [12] was “Dose-dependent-effect”. The Activity (Mus musculus [13]) was “Active”, the inhibition [14] was “Active” and the inhibition (THP1-Dual) was “inactive”. For the same compound, the inhibition [15] was “Active”, the Activity (Mus musculus [16]) was “Non-toxic” and the Activity (HEK293) was “Active”. For the same compound, the clearance [17] was 88.1 mL/min/kg, the microsomal CLint [18] was 52 µL/min/mg and the inhibition [19] was “Active”. For the same compound, the inhibition (Mus musculus [20]) was “Active”, the Activity (Mus musculus [21]) was “inactive” and the inhibition (Mus musculus [22]) was “Active”. For the same compound, the inhibition [23] was “Active”, the inhibition [24] was “Active” and the inhibition [25] was “Active”. The CLH [26] was 36.9 µL/min/mg.
